How the values were obtained:
Caco-2 cells = assay: Caco-2 bidirectional permeability; type: in vitro ADME; settings: for Caco-2 A2B (10^−6 cm/s): A to B; for Caco-2 A2B (10^−6 cm/s) / Caco-2 B2A (10^−6 cm/s): HBSS pH 7.4, 2 hours; for Caco-2 B2A (10^−6 cm/s): B to A; for Caco-2 ER: Efflux Ratio=Papp (BA)/Papp (AB)
Method in brief: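 Caco-2 monolayers grown 21–28 days on PET inserts were run in duplicate in HBSS with 10 mM HEPES, pH 7.4. Compound was tested in both directions at […] for 2 h at 37 °C and quantified by LC-MS/MS. Papp, % recovery and efflux ratio (B-A/A-B) were calculated, with lucifer yellow checking monolayer integrity.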

[1] = Human hepatocyte stability, in vitro h-Hept CLpredict; type: in vitro ADME; settings: cryopreserved hepatocytes, predicted hepatic clearance, cells without asterisk, read-out: hHep Cl
Method in brief: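 Cryopreserved human hepatocytes at 0.5×10^6 viable cells/mL in William's E medium, compound added from 100 μM solution, sampled 0–120 min in duplicate with LC/MS/MS quantitation. t1/2 from parent disappearance converted to CLint, then scaled to predicted hepatic clearance (well-stirred model, fub assumed 1) and extraction ratio.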

Compound | Caco-2 A2B (10^−6 cm/s) (Caco-2 cells) | Caco-2 B2A (10^−6 cm/s) (Caco-2 cells) | Caco-2 ER (Caco-2 cells) | CLhep predicted at 1 µM [1]
Cc1n[nH]c2c1N=C(c1c(F)cccc1F)Nc1c-2cc(N2CCN(CC(C)(C)F)CC2)nc1C [Example 5, 5-(2,6-difluorophenyl)-9-(4-(2-fluoro-2-methylpropyl)piperazin-1-yl)-3,7-dimethyl-1,6-dihydropyrazolo[4,3-d]pyrido[4,3-f][1,3]diazepine] | H (H (High permeability)”: A2B (B2A)>5) | H (H (High permeability)”: A2B (B2A)>5) | N (N (Non-substrate)”: ER<2.5) | 0.378 to 0.882 L/h/kg
[2H]C1([2H])OC([2H])([2H])C([2H])([2H])N(c2ccc3c(c2)-c2[nH]nc(C)c2N=C(c2c(F)cccc2F)N3)C1([2H])[2H] [Example 22, 2,2,3,3,5,5,6,6-octadeuterio-4-[5-(2,6-difluorophenyl)-3-methyl-1,6-dihydropyrazolo[4,3-d][1,3]benzodiazepin-9-yl]morpholine] | H (H (High permeability)”: A2B (B2A)>5) | H (H (High permeability)”: A2B (B2A)>5) | N (N (Non-substrate)”: ER<2.5) | 0.378 to 0.882 L/h/kg
Cc1n[nH]c2c1N=C(c1c(F)cccc1F)Nc1c-2cc(N2CC3(CCOCC3)C2)nc1C [Example 47, 2-[8-(2,6-difluorophenyl)-5,11-dimethyl-3,4,7,9,12-pentazatricyclo[8.4.0.02,6]tetradeca-1(10),2(6),4,7,11,13-hexaen-13-yl]-7-oxa-2-azaspiro[3.5]nonane] | M (M (Moderate permeability)”: 1≤A2B (B2A)≤5) | H (H (High permeability)”: A2B (B2A)>5) | L (L (Likely)”: ER>2.5) | 0.378 to 0.882 L/h/kg
Cc1n[nH]c2c1N=C(c1c(F)cccc1F)Nc1cnc(C#CC3(C)CCOCC3)cc1-2 [Example 17, 8-(2,6-difluorophenyl)-5-methyl-13-[2-(4-methyltetrahydropyran-4-yl)ethynyl]-3,4,7,9,12-pentazatricyclo[8.4.0.02,6]tetradeca-1(10),2(6),4,7,11,13-hexaene] | M (M (Moderate permeability)”: 1≤A2B (B2A)≤5) | H (H (High permeability)”: A2B (B2A)>5) | L (L (Likely)”: ER>2.5) | > 0.882 L/h/kg
Cc1n[nH]c2c1N=C(c1c(F)cccc1F)Nc1ccc(-c3cnn(C(F)F)c3)cc1-2 [Example 13, 9-[1-(difluoromethyl)pyrazol-4-yl]-5-(2,6-difluorophenyl)-3-methyl-1,6-dihydropyrazolo[4,3-d][1,3]benzodiazepine] | H (H (High permeability)”: A2B (B2A)>5) | H (H (High permeability)”: A2B (B2A)>5) | N (N (Non-substrate)”: ER<2.5) | 0.378 to 0.882 L/h/kg
Cc1n[nH]c2c1N=C(c1c(F)cccc1F)Nc1c-2cc(N2CCN(CCF)CC2)nc1C [Example 9, 8-(2,6-difluorophenyl)-13-[4-(2-fluoroethyl)piperazin-1-yl]-5,11-dimethyl-3,4,7,9,12-pentazatricyclo[8.4.0.02,6]tetradeca-1(10),2(6),4,7,11,13-hexaene] | H (H (High permeability)”: A2B (B2A)>5) | H (H (High permeability)”: A2B (B2A)>5) | N (N (Non-substrate)”: ER<2.5) | < 0.378 L/h/kg
Cc1n[nH]c2c1N=C(c1c(F)cccc1F)Nc1cnc(-c3cnn(C(F)F)c3)cc1-2 [Example 1, 9-(1-(difluoromethyl)-1H-pyrazol-4-yl)-5-(2,6-difluorophenyl)-3-methyl-1,6-dihydropyrazolo[4,3-d]pyrido[4,3-f][1,3]diazepine] | H (H (High permeability)”: A2B (B2A)>5) | H (H (High permeability)”: A2B (B2A)>5) | N (N (Non-substrate)”: ER<2.5) | < 0.378 L/h/kg
Cc1n[nH]c2c1N=C(c1c(F)cccc1F)N1CCc3nc(N4CCOCC4)cc-2c31 [Example 42, 4-[8-(2,6-difluorophenyl)-5-methyl-3,4,7,9,13-pentazatetracyclo[7.6.1.02,6.012,16]hexadeca-1(16),2(6),4,7,12,14-hexaen-14-yl]morpholine] | H (H (High permeability)”: A2B (B2A)>5) | H (H (High permeability)”: A2B (B2A)>5) | N (N (Non-substrate)”: ER<2.5) | 0.378 to 0.882 L/h/kg
Cc1n[nH]c2c1N=C(c1c(F)cccc1F)Nc1cnc(N3CCO[C@@H](C(F)(F)F)C3)cc1-2 [Example 55, (2R)-4-[8-(2,6-difluorophenyl)-5-methyl-3,4,7,9,12-pentazatricyclo[8.4.0.02,6]tetradeca-1(10),2(6),4,7,11,13-hexaen-13-yl]-2-(trifluoromethyl)morpholine] | H (H (High permeability)”: A2B (B2A)>5) | H (H (High permeability)”: A2B (B2A)>5) | N (N (Non-substrate)”: ER<2.5) | 0.378 to 0.882 L/h/kg
Cc1n[nH]c2c1N=C(c1c(F)cccc1F)Nc1cnc(-c3ccn(C(F)F)n3)cc1-2 [Example 12, 13-[1-(difluoromethyl)pyrazol-3-yl]-8-(2,6-difluorophenyl)-5-methyl-3,4,7,9,12-pentazatricyclo[8.4.0.02,6]tetradeca-1(10),2(6),4,7,11,13-hexaene] | H (H (High permeability)”: A2B (B2A)>5) | H (H (High permeability)”: A2B (B2A)>5) | N (N (Non-substrate)”: ER<2.5) | < 0.378 L/h/kg

Results, then the compound that gave them:

Caco-2 A2B (10^−6 cm/s) (Caco-2 cells) | Caco-2 B2A (10^−6 cm/s) (Caco-2 cells) | Caco-2 ER (Caco-2 cells) | CLhep predicted at 1 µM [1] | Compound
H (H (High permeability)”: A2B (B2A)>5) | H (H (High permeability)”: A2B (B2A)>5) | N (N (Non-substrate)”: ER<2.5) | < 0.378 L/h/kg | Cc1n[nH]c2c1N=C(c1c(F)cccc1F)Nc1cc(F)c(N3CCOCC3)cc1-2 [Example 28, 4-[5-(2,6-difluorophenyl)-8-fluoro-3-methyl-1,6-dihydropyrazolo[4,3-d][1,3]benzodiazepine-9-yl]morpholine]
H (H (High permeability)”: A2B (B2A)>5) | H (H (High permeability)”: A2B (B2A)>5) | L (L (Likely)”: ER>2.5) | < 0.378 L/h/kg | [2H]C([2H])([2H])c1n[nH]c2c1N=C(c1c(F)cccc1F)Nc1cnc(N3CCOCC3)cc1-2 [Example 32, 4-[8-(2,6-difluorophenyl)-5-(trideuteriomethyl)-3,4,7,9,12-pentazatricyclo[8.4.0.02,6]tetradeca-1(10),2(6),4,7,11,13-hexaen-13-yl]morpholine]
H (H (High permeability)”: A2B (B2A)>5) | H (H (High permeability)”: A2B (B2A)>5) | N (N (Non-substrate)”: ER<2.5) | 0.378 to 0.882 L/h/kg | Cc1n[nH]c2c1N=C(c1c(F)cccc1F)Nc1ccc(N3CCOCC3)cc1-2 [Example 29, 4-(5-(2,6-difluorophenyl)-3-methyl-1,6-dihydrobenzo[d]pyrazolo[3,4-f][1,3]diazepin-9-yl)morpholine]
H (H (High permeability)”: A2B (B2A)>5) | H (H (High permeability)”: A2B (B2A)>5) | N (N (Non-substrate)”: ER<2.5) | 0.378 to 0.882 L/h/kg | Cc1n[nH]c2c1N=C(c1c(F)cc(F)cc1F)Nc1ccc(N3CCOCC3)cc1-2 [Example 27, 4-[3-methyl-5-(2,4,6-trifluorophenyl)-1,6-dihydropyrazolo[4,3-d][1,3]benzodiazepin-9-yl]morpholine]
H (H (High permeability)”: A2B (B2A)>5) | H (H (High permeability)”: A2B (B2A)>5) | N (N (Non-substrate)”: ER<2.5) | < 0.378 L/h/kg | Cc1n[nH]c2c1N=C(c1c(F)cccc1F)Nc1ccc(N3CCO[C@@H](C)C3)cc1-2 [Example 26, (S)-4-(5-(2,6-difluorophenyl)-3-methyl-1,6-dihydrobenzo[d]pyrazolo[3,4-f][1,3]diazepin-9-yl)-2-methylmorpholine]
H (H (High permeability)”: A2B (B2A)>5) | H (H (High permeability)”: A2B (B2A)>5) | N (N (Non-substrate)”: ER<2.5) | < 0.378 L/h/kg | [2H]C([2H])([2H])c1n[nH]c2c1N=C(c1c(F)cccc1F)Nc1ccc(N3CCOCC3)cc1-2 [Example 33, 4-[5-(2,6-difluorophenyl)-3-(trideuteriomethyl)-1,6-dihydropyrazolo[4,3-d][1,3]benzodiazepin-9-yl]morpholine]
H (H (High permeability)”: A2B (B2A)>5) | H (H (High permeability)”: A2B (B2A)>5) | N (N (Non-substrate)”: ER<2.5) | < 0.378 L/h/kg | [2H]C([2H])([2H])c1n[nH]c2c1N=C(c1c(F)cccc1F)Nc1ccc(N3CCO[C@@H](C)C3)cc1-2 [Example 34, (2S)-4-[5-(2,6-difluorophenyl)-3-(trideuteriomethyl)-1,6-dihydropyrazolo[4,3-d][1,3]benzodiazepin-9-yl]-2-methyl-morpholine]
H (H (High permeability)”: A2B (B2A)>5) | H (H (High permeability)”: A2B (B2A)>5) | N (N (Non-substrate)”: ER<2.5) | 0.378 to 0.882 L/h/kg | Cc1n[nH]c2c1N=C(c1c(F)cccc1F)Nc1ccc(N3CCO[C@H](C)C3)cc1-2 [Example 7, (R)-4-(5-(2,6-difluorophenyl)-3-methyl-1,6-dihydrobenzo[d]pyrazolo[3,4-f][1,3]diazepin-9-yl)-2-methylmorpholine]

Reference: patent US20240208972A1, “LRRK2 INHIBITORS AND USES THEREOF” (NEURON23, INC., priority 2022, published 2024)
